Structures can show the parent of a compound that is named as a salt.
Biological target: T1, recombinant sEH (Homo sapiens, UniProt P34913)
T1 construct: made in house; host or cells: Sf9 insect cells
T1 sequence (P34913 1-555): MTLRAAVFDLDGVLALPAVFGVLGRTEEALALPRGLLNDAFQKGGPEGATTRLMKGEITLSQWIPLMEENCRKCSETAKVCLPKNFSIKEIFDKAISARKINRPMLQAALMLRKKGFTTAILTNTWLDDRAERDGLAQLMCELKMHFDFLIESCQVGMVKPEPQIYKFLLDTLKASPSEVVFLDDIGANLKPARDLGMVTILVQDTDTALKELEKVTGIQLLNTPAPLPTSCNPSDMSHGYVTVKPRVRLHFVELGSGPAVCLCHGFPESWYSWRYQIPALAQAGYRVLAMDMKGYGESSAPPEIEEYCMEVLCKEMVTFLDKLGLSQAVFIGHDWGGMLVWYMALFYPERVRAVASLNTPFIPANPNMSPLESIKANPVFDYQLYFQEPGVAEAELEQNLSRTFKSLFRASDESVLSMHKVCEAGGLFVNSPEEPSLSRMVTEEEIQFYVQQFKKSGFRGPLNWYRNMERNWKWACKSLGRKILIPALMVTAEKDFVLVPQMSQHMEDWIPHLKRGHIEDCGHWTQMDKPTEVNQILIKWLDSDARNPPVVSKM
Test: biochemical screening assay for inhibition of soluble epoxide hydrolase (fluorometric, Phome substrate)
Procedure, shortened: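 Human sEH from Sf9 cells (2 nM final) was pre-incubated 15 min at 30 °C with compound (0.0001–10 μM), then reacted 60 min at 30 °C with 5 μM Phome in 25 mM Hepes/0.01% albumin. Fluorescence of released 6-methoxy-2-naphthaldehyde was read before substrate and at end; IC50 from % inhibition.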

Row | SMILES | IC50 [nM]
1 | COc1ccc([C@H](C)NC(=O)N[C@H]2CO[C@H]3[C@@H]2OC[C@@H]3Oc2ccc(F)cc2)cc1 [Example 167, 1-[(3S,3aR,6S,6aS)-6-(4-Fluoro-phenoxy)-hexahydro-furo[3,2-b]furan-3-yl]-3-[(S)-1-(4-methoxy-phenyl)-ethyl]-urea] | 66
2 | O=C(NC1CCCCC1)N[C@H]1CO[C@H]2[C@@H]1OC[C@@H]2Oc1ccc(C(=O)N2CCNCC2)cc1 [Example 126, 1-Cyclohexyl-3-{(3S,3aR,6S,6aS)-6-[4-(piperazine-1-carbonyl)-phenoxy]-hexahydro-furo[3,2-b]furan-3-yl}-urea; trifluoroacetate] | 30
3 | Cc1cc(O[C@H]2CO[C@H]3[C@@H]2OC[C@@H]3NC(=O)NC2CCCCC2)cnc1Cl [Example 65, 1-[(3S,3aR,6S,6aS)-6-(6-Chloro-5-methyl-pyridin-3-yloxy)-hexahydro-furo[3,2-b]furan-3-yl]-3-cyclohexyl-urea] | 2
4 | C[C@H](NC(=O)N[C@H]1CO[C@H]2[C@@H]1OC[C@@H]2Oc1ccc(F)cc1)c1ccc(F)cc1 [Example 160, 1-[(3S,3aR,6S,6aS)-6-(4-Fluoro-phenoxy)-hexahydro-furo[3,2-b]furan-3-yl]-3-[(S)-1-(4-fluoro-phenyl)-ethyl]-urea] | 31
5 | Cc1ncccc1O[C@H]1CO[C@H]2[C@@H]1OC[C@@H]2NC(=O)NC(C)(C)CN1CCOCC1 [Example 197, 1-(1,1-Dimethyl-2-morpholin-4-yl-ethyl)-3-[(3S,3aR,6S,6aS)-6-(2-methyl-pyridin-3-yloxy)-hexahydro-furo[3,2-b]furan-3-yl]-urea] | 1140
6 | O=C(NC1CCCCC1)N[C@H]1CO[C@H]2[C@@H]1OC[C@@H]2Oc1cccc(Oc2ccccc2)c1 [Example 27, 1-Cyclohexyl-3-[(3S,3aR,6S,6aS)-6-(3-phenoxy-phenoxy)-hexahydro-furo[3,2-b]furan-3-yl]-urea] | 3
7 | Cc1ncccc1OC1COC2C(NC(=O)NC34CC5CC(CC(O)(C5)C3)C4)COC12 [Example 193, 1-((1R,3S,5R,7S)-3-Hydroxy-adamantan-1-yl)-3-[(3S,3aR,6S,6aS)-6-(2-methyl-pyridin-3-yloxy)-hexahydro-furo[3,2-b]furan-3-yl]-urea] | 51
8 | Cc1ncccc1O[C@H]1CO[C@H]2[C@@H]1OC[C@@H]2NC(=O)NC[C@H]1C[C@H]2C[C@@H]([C@@H]1C)C2(C)C [Example 178, 1-[(3S,3aR,6S,6aS)-6-(2-Methyl-pyridin-3-yloxy)-hexahydro-furo[3,2-b]furan-3-yl]-3-((1S,2S,3S,5R)-2,6,6-trimethyl-bicyclo[3.1.1]hept-3-ylmethyl)-urea] | 5
9 | Cc1ncccc1O[C@H]1CO[C@H]2[C@@H]1OC[C@@H]2NC(=O)N[C@H]1C[C@@H]2CC[C@H]1C2 [Example 181, 1-(1S,2S,4R)-Bicyclo[2.2.1]hept-2-yl-3-[(3S,3aR,6S,6aS)-6-(2-methyl-pyridin-3-yloxy)-hexahydro-furo[3,2-b]furan-3-yl]-urea] | 1
10 | CCc1nc(C)ccc1O[C@H]1CO[C@H]2[C@@H]1OC[C@@H]2NC(=O)NC1CCCCC1 [Example 38, 1-Cyclohexyl-3-[(3S,3aR,6S,6aS)-6-(2-ethyl-6-methyl-pyridin-3-yloxy)-hexahydro-furo[3,2-b]furan-3-yl]-urea] | 1
11 | COCCCNC(=O)NC1COC2C(Oc3cccnc3C)COC12 [Example 175, 1-(3-Methoxy-propyl)-3-[(3S,3aR,-6S,6aS)-6-(2-methyl-pyridin-3-yl-oxy)-hexahydro-furo[3,2-b]furan-3-yl]-urea] | 975
12 | Cc1ncccc1O[C@H]1CO[C@H]2[C@@H]1OC[C@@H]2NC(=O)NC(C)(C)c1ccc(F)cc1 [Example 204, 1-[1-(4-Fluoro-phenyl)-1-methyl-ethyl]-3-[(3S,3aR,6S,6aS)-6-(2-methyl-pyridin-3-yloxy)-hexahydro-furo[3,2-b]furan-3-yl]-urea] | 734
13 | CC(C)(C)S[C@H]1CO[C@H]2[C@@H]1OC[C@@H]2NC(=O)NC1CCCCC1 [Example 21, 1-((3S,3aR,6S,6aS)-6-tert-Butylsulfanyl-hexahydro-furo[3,2-b]furan-3-yl)-3-cyclohexyl-urea] | 1
14 | O=C(NC1CCCCC1)N[C@H]1CO[C@H]2[C@@H]1OC[C@@H]2Sc1ccncn1 [Example 49, 1-Cyclohexyl-3-[(3S,3aR,6S,6aS)-6-(pyrimidin-4-ylsulfanyl)-hexahydro-furo[3,2-b]furan-3-yl]-urea; hydrochloride] | 3
15 | O=C(NC1CCCCC1)N[C@H]1CO[C@H]2[C@@H]1OC[C@@H]2Oc1cccc(C(F)(F)F)c1 [Example 125, 1-Cyclohexyl-3-[(3S,3aR,6S,6aS)-6-(3-trifluoromethyl-phenoxy)-hexa-hydro-furo[3,2-b]furan-3-yl]-urea] | 3
16 | Cc1ncccc1O[C@H]1CO[C@H]2[C@@H]1OC[C@@H]2NC(=O)NCc1ccc(OC(F)F)cc1 [Example 189, 1-(4-Difluoromethoxy-benzyl)-3-[(3S,3aR,6S,6aS)-6-(2-methyl-pyridin-3-yloxy)-hexahydro-furo[3,2-b]furan-3-yl]-urea] | 23
17 | CC(C)(O)c1cncc(O[C@H]2CO[C@H]3[C@@H]2OC[C@@H]3NC(=O)NC2CCCCC2)c1 [Example 68, 1-cyclohexyl-3-{(3S,3aR,6S,6aS)-6-[5-(1-hydroxy-1-methyl-ethyl)-pyridin-3-yloxy]-hexahydro-furo[3,2-b]furan-3-yl}-urea; hydrochloride] | 2
18 | C[C@@H](NC(=O)N[C@H]1CO[C@H]2[C@@H]1OC[C@@H]2Oc1ccc(F)cc1)c1ccc(F)cc1 [Example 159, 1-[(3S,3aR,6S,6aS)-6-(4-Fluoro-phenoxy)-hexahydro-furo[3,2-b]furan-3-yl]-3-[(R)-1-(4-fluoro-phenyl)-ethyl]-urea] | 5
19 | Cc1ncccc1O[C@H]1CO[C@H]2[C@@H]1OC[C@@H]2NC(=O)NCCOC(C)(C)C [Example 217, 1-(2-tert-Butoxy-ethyl)-3-[(3S,3aR,6S,6aS)-6-(2-methyl-pyridin-3-yloxy)-hexahydro-furo[3,2-b]furan-3-yl]-urea] | 371

The remaining lines, values ahead:

Row | IC50 [nM] | SMILES
20 | 238 | Cc1ncccc1O[C@H]1CO[C@H]2[C@@H]1OC[C@@H]2NC(=O)Nc1cc(C(C)(C)C)[nH]n1 [Example 215, 1-(5-tert-Butyl-1H-pyrazol-3-yl)-3-[(3S,3aR,6S,6aS)-6-(2-methyl-pyridin-3-yloxy)-hexahydro-furo[3,2-b]furan-3-yl]-urea]
21 | 125 | Cc1ncccc1O[C@H]1CO[C@H]2[C@@H]1OC[C@@H]2NC(=O)NC1CCOCC1 [Example 216, 1-[(3S,3aR,6S,6aS)-6-(2-Methyl-pyridin-3-yloxy)-hexahydro-furo[3,2-b]furan-3-yl]-3-(tetrahydro-pyran-4-yl)-urea]
22 | 86 | Cc1ncccc1O[C@H]1CO[C@H]2[C@@H]1OC[C@@H]2NC(=O)NCCC1CCCCO1 (stereo partly drawn) [Example 235, 1-[(3S,3aR,6S,6aS)-6-(2-Methyl-pyridin-3-yloxy)-hexahydro-furo[3,2-b]furan-3-yl]-3-[2-(tetrahydro-pyran-2-yl)-ethyl]-urea]
23 | 99 | Cc1ncccc1O[C@H]1CO[C@H]2[C@@H]1OC[C@@H]2NC(=O)NC1CCCCC1C(C)(C)C (stereo partly drawn) [Example 271, 1-(2-tert-Butyl-cyclohexyl)-3-[(3S,3aR,6S,6aS)-6-(2-methyl-pyridin-3-yloxy)-hexahydro-furo[3,2-b]furan-3-yl]-urea]
24 | 104 | COc1cc(NC(=O)N[C@H]2CO[C@H]3[C@@H]2OC[C@@H]3C#Cc2ccsc2)cc(OC)c1 [Example 301, 1-(3,5-Dimethoxy-phenyl)-3-((3S,3aR,6S,6aR)-6-thiophen-3-ylethynyl-hexahydro-furo[3,2-b]furan-3-yl)-urea]
25 | 37 | Cc1ncccc1O[C@H]1CO[C@H]2[C@@H]1OC[C@@H]2NC(=O)NC1CCN(C(=O)C(C)C)CC1 [Example 212, 1-(1-Isobutyryl-piperidin-4-yl)-3-[(3S,3aR,6S,6aS)-6-(2-methyl-pyridin-3-yloxy)-hexahydro-furo[3,2-b]furan-3-yl]-urea]
26 | 9 | O=C(Nc1ccc(F)cc1)NC1COC2C(CCc3ccsc3)COC12 [Example 366, 1-(4-Fluoro-phenyl)-3-[(3S,3aR,6R)-6-((S)-2-thiophen-3-yl-ethyl)-hexa-hydro-furo[3,2-b]furan-3-yl]-urea]
27 | 39 | O=C(NCCc1ccccc1)N[C@H]1CO[C@@H]2[C@@H](CCc3ccsc3)CO[C@@H]21 [Example 373, 1-Phenethyl-3-[(3S,3aR,6S,6aR)-6-(2-thiophen-3-yl-ethyl)-hexahydro-furo[3,2-b]furan-3-yl]-urea]
28 | 192 | O=C(Nc1ccc(F)cc1)N[C@H]1CO[C@H]2[C@@H]1OC[C@@H]2C#Cc1ccsc1 [Example 306, 1-(4-Fluoro-phenyl)-3-((3S,3aR,6S,6aR)-6-thiophen-3-ylethynyl-hexahydro-furo[3,2-b]furan-3-yl)-urea]
29 | 65 | Cc1ncccc1O[C@H]1CO[C@H]2[C@@H]1OC[C@@H]2NC(=O)NC1CC(=O)N(c2ccccc2)C1 (stereo partly drawn) [Example 247, 1-[(3S,3aR,6S,6aS)-6-(2-Methyl-pyridin-3-yloxy)-hexahydro-furo[3,2-b]furan-3-yl]-3-(5-oxo-1-phenyl-pyrrolidin-3-yl)-urea]
